# Read-outs that look alike come from different tables or passages of the source.
# Experiments:
# [1] = Drug uptake/leakage after removal of nigericin (spin column, dialysis)
# Description: Uptake was monitored for LUVs containing 300 mM K2 SO4 at a nigericin concentration of 1 ng/μmol lipid (.box-solid.), and for LUVs which were preincubated with nigericin for 5 min at 60° C., and then passed down a spin column prior to addition of the drug (.circle-solid.).
# Thus, an aliquot of nigericin (1 ng NIG/μmol lipid) was added to a sample of SPM/Chol LUVs containing 300 mm KH2 PO4 and the temperature was increased to 60° C. for 5 min to ensure association of nigericin with the lipid. The sample was then exhaustively dialysed at room temperature against 300 mM sucrose for 20 hours, following which an aliquot was passed down a spin column prior to drug loading with VINC (FIG. 10B).
# To ensure that such was not the case, control uptake experiments were performed on LUVs containing ethylammonium sulfate and amylammonium sulfate which were subjected to the same conditions.
# [2] = In vitro drug leakage from LUVs in 50% mouse serum at 37 °C; type: in vitro ADME; conditions: SPM/Chol LUVs
# Description: In this assay, equal volumes of the liposomal drug formulation and of mouse serum are combined in a test tube and incubated at 37° C. Leakage of the drug from the LUVs is assayed by removal of aliquots for spin column analysis.
# An in vitro leakage assay has been designed which employs mouse serum to assess the relative retentive properties of the various liposomal systems. The assay is extremely simple, involving the incubation of equal volumes of mouse serum and LUV (loaded with drug) at 37° C., followed by the application of aliquots to spin columns to quantitate the change in D/L ratio with time.
# in vivo = conditions: mouse, iv; for half-life: 2 mg/kg
# Description: Lipid was measured using [^14 C]cholesteryl hexadecyl ether as a tracer. The %-retention is defined as the D/L ratio at time t divided by the initial measured drug to lipid ratio.
# SPM/Chol vesicles (100 nm) were used (55:45; mole %). The vesicles were prepared in a 300 mM K2 SO4 solution or 300 mM MnSO4 and the external medium was exchanged with 300 mM sucrose, 20 mM HEPES, pH 7.0 by overnight dialysis. […] Uptake of the drug was accomplished in the following manner: to an aliquot of liposomes was added either nigericin (1 ng per μmol of lipid) or A23187 (0.1 ,μg/μmol lipid) along with an appropriate amount of drug. For the A23187 experiments, EDTA was present in the external medium at 30 mM.
# Each mouse was injected via a lateral tail vein with 200 μL total volume. […] At varying time points, mice were anaesthetized and blood was collected via cardiac puncture. Blood was immediately centrifuged at 500 g and plasma was collected for lipid and drug determination.
# Each drug was loaded using several methods, and was injected at time 0 into mice. At the indicated times, samples were withdrawn and the D/L ratio of the recovered LUVs was determined.
# [3] = Vincristine uptake (loading) into LUVs using A23187 / Mn2+ systems; type: physicochemical; conditions: SPM/Chol LUVs, 300 mM MnSO4, 60 °C; for %-uptake / Retention: D/L 0.05, A23187 0.1 μg/μmol lipid
# Description: (§1) [^14 C]CIPRO was diluted with cold CIPRO and the specific activity was determined by liquid scintillation counting and absorbance spectroscopy. […] For experiments involving [^14 C]CIPRO, the lipid mixtures were labeled using trace amounts of [^3 H]CHE. For [^3 H]VINC uptake the lipid was labeled with [^14 C]CHE. Lipid specific activities were determined by liquid scintillation counting and by quantification of phospholipid via phosphate assays.
# Excellent uptake and retention of VINC can also be obtained using Mn^2+ /A23187 with SPM/Chol LUVs (see FIG. 8). Less than 5% uptake was observed when there was no EDTA present in the external medium of Hepes-buffered sucrose (pH 7.5). […] However, extremely poor uptake (40%) is observed at lower external pHs when using 300 mM sucrose 3 mM EDTA.
# [4] = literature; cited from earlier work
# [5] = Vincristine uptake (loading) into LUVs using nigericin/K+ systems; type: physicochemical; conditions: 60 °C
# Description: as §1
# As with CIPRO, no uptake was observed prior to the addition of nigericin (arrow). […] A further improvement was obtained (93-95%) for LUVs prepared in 300 mM K2 SO4 pH 7.4 with an external pH of 6 (either 20 mM HEPES 300 mM sucrose or 20 mM MES 300 mM sucrose) (see FIG. 9B).
# [6] = Transmembrane ΔpH measured with [14C]methylamine after vincristine uptake; type: physicochemical; conditions: DSPC/Chol LUVs; 300 mM K2-tartrate pH 7.4; nigericin 1 ng/μmol lipid; external HEPES-buffered sucrose pH 5.3-6.3
# Description: Uptake of VINC in response to transmembrane gradients of K2 -tartrate has also been investigated in DSPC/Chol LUVs (Table 2). […] The ionophore concentration was 1 ng NIG/μmol lipid.
# [7] = Deamer et al.; cited from earlier work
# [8] = large Mn2+ gradient still present; Erdahl et al.; cited from earlier work
# [9] = Fluorimetric determination of A23187 in a liposomal formulation; type: physicochemical; conditions: for Amount of A23187 measured: no removal; for remaining A23187 concentration: initial 500 ng
# Description: The quantity of A23187 in SPM/Chol LUVs was determined by measuring the fluorescence intensity of the ionophore at an emission wavelength of 437 nm following solubilization of the liposomal formulation and complexation of the released divalent cations. Briefly, an aliquot of LUV/A23187 (corresponding to 5 μmol total lipid) was combined with a 333 mM EDTA solution (3 μL) and the volume was made up to 1 mL with ethanol:methanol (70:30 v:v). The sample was vortexed until clear, and the fluorescence intensity was measured. Calibration standards were prepared by the addition of known aliquots of A23187 to a 1 mL solution consisting of ethanol:methanol (70:30 v:v) and containing 5 mM total lipid.
# As mentioned above, the concentration of A23187 in LUVs can be quantitated using a fluorimetric assay which allows determination of the amount remaining following various purification procedures. The results are given in Table 5 for SPM/Chol LUVs initially containing A23187 at a concentration of 0.1 μg/μmol lipid. For sample 1 (S1), 146 ng of A23187 was added to the LUVs, and 123 ng was measured by the assay.
# [10] = Pressman, cited from earlier work
# [11] = external 300 mM sucrose + 3 mM EDTA
# [12] = SPM/Chol LUVs, 300 mM KH2PO4, D/L 0.05 wt:wt, nigericin 1 ng/μmol lipid, external 300 mM sucrose
compound,measurement,setting,value
amylammonium sulfate,encapsulation in control LUVs containing amine salt subjected to the same dialysis,"[1]; control LUVs, same dialysis conditions",80-95%
"CC[C@]1(O)C[C@H]2CN(CCc3c([nH]c4ccccc34)[C@@](C(=O)OC)(c3cc4c(cc3OC)N(C=O)[C@H]3[C@@](O)(C(=O)OC)[C@H](OC(C)=O)[C@]5(CC)C=CCN6CC[C@]43[C@@H]65)C2)C1 [Vincristine, vincristine]","retention in mouse serum, K+/nigericin with phosphate or tartrate salts, or sulfate salts with external pH of 6",[2],better retention
same,"retention of drug in mouse serum, Mn2+/A23187 versus K+/nigericin system",[2],better retention
same,"retention in mouse serum, Mn2+/A23187 versus LUVs loaded using methylammonium sulfate",[2]; results not shown,similar
same,factor by which drug leakage half-lives differ (citrate vs A23187),in vivo,two
same,half-life,in vivo,6 h
same,half-life,in vivo; pH 4,8.5 h
same,"in vivo retention, A23187 versus 300 mM citrate pH 4.0",in vivo; pH 4,comparable
same,uptake,"[3]; A23187, external Hepes-buffered sucrose pH 7.5, no EDTA",Less than 5%
same,%-uptake,[3]; [11],40%
same,Retention,[3]; [11],excellent
same,Retention,[3]; external 300 mM sucrose + 20 mM HEPES 3 mM EDTA pH 7.5,excellent
same,%-uptake,[3]; external 300 mM sucrose + 20 mM HEPES 3 mM EDTA pH 7.5 (text: within one hour),> 95%
same,%-uptake,"[3]; external 300 mM sucrose + 20 mM HEPES 3 mM EDTA pH 7.5 (text: within one hour), listed as VINC",over 95%
same,Retention,"[3]; external 300 mM sucrose + 20 mM HEPES 3 mM EDTA pH 7.5, listed as VINC",Excellent
same,%-uptake,"[3]; external 300 mM sucrose, no EDTA",5%
same,efficacy in liposomally-encapsulated formulations,[4],equal or increased efficacy
same,toxicity in liposomally-encapsulated formulations,[4],significantly reduced toxicity
same,uptake after 20 h dialysis and spin column,"[1]; SPM/Chol LUVs, 300 mM KH2PO4 (printed 300 mm), nigericin 1 ng/μmol lipid, at 1 hr",60%
same,Retention,"[5]; DSPC/Chol LUVs, 300 mM K2-tartrate pH 7.4, D/L 0.05 wt:wt, nigericin 1 ng/μmol lipid, external 300 mM sucrose + 20 mM HEPES pH 5.3-6.3",excellent
same,%-uptake,"[5]; DSPC/Chol LUVs, 300 mM K2-tartrate pH 7.4, D/L 0.05 wt:wt, nigericin 1 ng/μmol lipid, external 300 mM sucrose + 20 mM HEPES pH 5.3-6.3 (text: within 15 min)",85-90%
same,%-uptake,"[5]; SPM/Chol LUVs, 300 mM K2-tartrate pH 7.4, D/L 0.05 wt:wt, nigericin 1 ng/μmol lipid, external 300 mM sucrose + 20 mM MES pH 6.0",70%
same,%-uptake,"[5]; SPM/Chol LUVs, 300 mM K2HPO4, D/L 0.05 wt:wt, nigericin 1 ng/μmol lipid, external 300 mM sucrose",< 5%
same,uptake prior to the addition of nigericin,"[5]; SPM/Chol LUVs, 300 mM K2SO4",no uptake
same,Retention,"[5]; SPM/Chol LUVs, 300 mM K2SO4, external 300 mM sucrose",excellent retention
same,Retention,"[5]; SPM/Chol LUVs, 300 mM K2SO4, external HEPES-buffered sucrose pH 7.5, over 75 minutes",poor retention
same,encapsulation,"[5]; SPM/Chol LUVs, 300 mM K2SO4, nigericin 1 ng/μmol lipid, external 300 mM sucrose",~90%
same,uptake,"[5]; SPM/Chol LUVs, 300 mM K2SO4, nigericin 1 ng/μmol lipid, external HEPES-buffered sucrose pH 7.5",60%
same,%-uptake,"[5]; SPM/Chol LUVs, 300 mM K2SO4 pH 7.4, D/L 0.05 wt:wt, nigericin 1 ng/μmol lipid, external 300 mM sucrose + 20 mM HEPES or MES pH 6.0",92%
same,%-uptake,"[5]; SPM/Chol LUVs, 300 mM K2SO4 pH 7.4, D/L 0.05 wt:wt, nigericin 1 ng/μmol lipid, external 300 mM sucrose + 20 mM HEPES or MES pH 6.0, listed as VINC",93-95%
same,%-uptake,[5]; [12],80%
same,Retention,[5]; [12],excellent
same,ΔpH present following drug uptake,[6],2.3
COc1cccc2c1C(=O)c1c(O)c3c(c(O)c1C2=O)C[C@@](O)(C(=O)CO)C[C@@H]3O[C@H]1C[C@H](N)[C@H](O)[C@H](C)O1 [doxorubicin],effect of encapsulation on drug toxicity (particularly acute cardiotoxicity),[4],can decrease drug toxicity
same,efficacy in liposomally-encapsulated formulations,[4],equal or increased efficacy
same,toxicity in liposomally-encapsulated formulations,[4],significantly reduced toxicity
"O=C(O)c1cn(C2CC2)c2cc(N3CCNCC3)c(F)cc2c1=O [Ciprofloxacin, ciprofloxacin]",entrapment,"[1]; SPM/Chol LUVs, 300 mM K2SO4, nigericin 1 ng/μmol lipid and drug added at same time, D/L 0.2, 60 °C, within 30 min",80%
same,"in vitro leakage rates, normal versus nigericin-reduced LUVs",[1]; not shown,identical
"CO[C@@H]1C[C@@H](C[C@H]2CC[C@H](C)[C@H]([C@@H](C)C(=O)O)O2)O[C@]2(O[C@](C)([C@H]3CC[C@@](C)([C@@H]4O[C@@H]([C@H]5O[C@@](O)(CO)[C@H](C)C[C@@H]5C)C[C@@H]4C)O3)C[C@H]2C)[C@@H]1C [Nigericin, nigericin]",pH gradient formed across sonicated vesicle membranes,[7],2.2 units
CNc1ccc2oc(C[C@H]3O[C@@]4(CC[C@H]3C)O[C@H]([C@H](C)C(=O)c3ccc[nH]3)[C@H](C)C[C@H]4C)nc2c1C(=O)O [A23187],fraction of entrapped Mn2+ released from POPC vesicles,[8],< 1/2
same,Amount of A23187 measured,"[9]; S1, initial amount 146 ng, SPM/Chol LUVs",123 ng
same,remaining A23187 level,"[9]; S2, Sephadex G-50 column eluted with 300 mM sucrose, initial 109 ng",below background
same,remaining A23187 concentration,"[9]; S3, dialysis against 300 mM sucrose",below background levels
same,Amount of A23187 measured,"[9]; S4 + 45 ng A23187, initial amount 45 ng",41 ng
same,Amount of A23187 measured,"[9]; S4 + 90 ng A23187, initial amount 90 ng",94 ng
same,remaining A23187 concentration,"[9]; S4, SM-2 biobeads",below background levels
same,relative binding affinity,"[10]; Ca2+, relative to Mn2+ and Mg2+ (210:2.6:1)",2.6
same,relative binding affinity,"[10]; Mg2+, relative to Mn2+ and Ca2+ (210:2.6:1)",1
same,relative binding affinity,"[10]; Mn2+, relative to Ca2+ and Mg2+ (210:2.6:1)",210
same,divalent cation transport specificity,[10],Mn^2+ >Ca^2+ >Mg^2+
